Measurements: patent publication US11713315B2, “5 to 7 membered heterocyclic amides as JAK inhibitors” (priority 2018, dated 2023)

Assay: Lung S9 metabolism
Format: in vitro ADME
Conditions: human lung S9; qualitative observation of O-sulfate metabolite peak
Protocol: Lung S9 fractions from human (lot 1410245) were purchased from XenoTech LLC (Lenexa, Kans.). NADPH (Sigma Aldrich, N1630) and 3-phosphoadenosine 5-phosphosulfate (PAPS) (Sigma Aldrich, A1651) were purchased from Sigma Aldrich (St. Louis, Mo.). Acetonitrile and water were obtained from VWR (Radnor, Pa.) and were of HPLC grade or better. Raloxifene and formic acid was purchased from Sigma Aldrich (St. Louis, Mo.). Lung S9 incubations were performed in a water bath at 37° C. in a 96-well polypropylene plate. […] All samples were centrifuged at 2250 g for 10 minutes at 5° C. Supernatant […] was taken from the centrifuged samples and diluted into 1004 HPLC water containing internal standard. […] Mobile Phase A consisted of Water+0.2% formic acid and Mobile Phase B consisted of acetonitrile+0.2% formic acid. Peak integration was accomplished using Gubbs GMSU software (Gubbs Inc., Alpharetta, Ga.). For each sample, peak area ratios were calculated by dividing the analyte peak area by the internal standard peak area. […] Determination of sulfate metabolite formation was made qualitatively by observation of early-eluting peak in the parent ion channel which, based on historical internal data, corresponded to the 0-sulfate metabolite of each parent compound.

| SMILES | Sulfate Appearance |
| --- | --- |
| CCCN1Cc2[nH]c(-c3n[nH]c4cc(-c5ccc(O)cc5CC)ccc34)nc2C[C@H]1C(=O)N1CCN(CCO)CC1 [Compound 1, (S)-(2-(6-(2-ethyl-4-hydroxyphenyl)-1H-indazol-3-yl)-5-propyl-4,5,6,7-tetrahydro-3H-imidazo[4,5-c]pyridin-6-yl)(4-(2-hydroxyethyl)piperazin-1-yl)methanone] | Yes |
| CCc1cc(O)ccc1-c1ccc2c(-c3nc4c([nH]3)CN(C)[C@H](C(=O)N3CCN(C)C[C@@H]3C)C4)n[nH]c2c1 [Compound 3, ((S)-2,4-dimethylpiperazin-1-yl)((S)-2-(6-(2-ethyl-4-hydroxyphenyl)-1H-indazol-3-yl)-5-methyl-4,5,6,7-tetrahydro-3H-imidazo[4,5-c]pyridin-6-yl)methanone] | Yes |
| CCc1cc(O)ccc1-c1ccc2c(-c3nc4c([nH]3)CN(C(C)C)[C@H](C(=O)N3CCCN(C)CC3)C4)n[nH]c2c1 [Compound 4, (S)-(2-(6-(2-ethyl-4-hydroxyphenyl)-1H-indazol-3-yl)-5-isopropyl-4,5,6,7-tetrahydro-3H-imidazo[4,5-c]pyridin-6-yl)(4-methyl-1,4-diazepan-1-yl)methanone] | Yes |
| CCCN1Cc2[nH]c(-c3n[nH]c4cc(-c5ccc(O)cc5CC)ccc34)nc2C[C@H]1C(=O)N1C[C@@H]2C[C@H]1CN2C [Compound 2, ((S)-2-(6-(2-ethyl-4-hydroxyphenyl)-1H-indazol-3-yl)-5-propyl-4,5,6,7-tetrahydro-3H-imidazo[4,5-c]pyridin-6-yl)((1S,4S)-5-methyl-2,5-diazabicyclo[2.2.1]heptan-2-yl)methanone] | Yes |
| CCc1cc(O)ccc1-c1ccc2c(-c3nc4c([nH]3)CN(C)[C@H](C(=O)N3CCN(CCO)C[C@H]3C)C4)n[nH]c2c1 [Compound 5, ((S)-2-(6-(2-ethyl-4-hydroxyphenyl)-1H-indazol-3-yl)-5-methyl-4,5,6,7-tetrahydro-3H-imidazo[4,5-c]pyridin-6-yl)((R)-4-(2-hydroxyethyl)-2-methylpiperazin-1-yl)methanone] | Yes |
| CCc1cc(O)ccc1-c1ccc2c(-c3nc4c([nH]3)CN(C(C)C)[C@H](C(=O)N3CC[C@H](N(C)C)C3)C4)n[nH]c2c1 [Compound 6, ((S)-3-(dimethylamino)pyrrolidin-1-yl)((S)-2-(6-(2-ethyl-4-hydroxyphenyl)-1H-indazol-3-yl)-5-isopropyl-4,5,6,7-tetrahydro-3H-imidazo[4,5-c]pyridin-6-yl)methanone] | Yes |

More lines, now with the values ahead:

| Sulfate Appearance | SMILES |
| --- | --- |
| Yes | CCc1cc(O)c(F)cc1-c1ccc2c(-c3nc4c([nH]3)CN(C)[C@H](C(=O)N3CCN(C)C[C@@H]3C)C4)n[nH]c2c1 [Compound C-3, ((S)-2,4-dimethylpiperazin-1-yl)((S)-2-(6-(2-ethyl-5-fluoro-4-hydroxyphenyl)-1H-indazol-3-yl)-5-methyl-4,5,6,7-tetrahydro-3H-imidazo[4,5-c]pyridin-6-yl)methanone] |
| Yes | CCCN1Cc2[nH]c(-c3n[nH]c4cc(-c5cc(F)c(O)cc5CC)ccc34)nc2C[C@H]1C(=O)N1CCN(CCO)CC1 [Compound C-1, (S)-(2-(6-(2-ethyl-5-fluoro-4-hydroxyphenyl)-1H-indazol-3-yl)-5-propyl-4,5,6,7-tetrahydro-3H-imidazo[4,5-c]pyridin-6-yl)(4-(2-hydroxyethyl)piperazin-1-yl)methanone] |
| Yes | CCc1cc(O)c(F)cc1-c1ccc2c(-c3nc4c([nH]3)CN(C(C)C)[C@H](C(=O)N3CC[C@H](N(C)C)C3)C4)n[nH]c2c1 [Compound C-6] |
| Yes | CCc1cc(O)c(F)cc1-c1ccc2c(-c3nc4c([nH]3)CN(C(C)C)[C@H](C(=O)N3CCCN(C)CC3)C4)n[nH]c2c1 [Compound C-4, (S)-(2-(6-(2-ethyl-5-fluoro-4-hydroxyphenyl)-1H-indazol-3-yl)-5-isopropyl-4,5,6,7-tetrahydro-3H-imidazo[4,5-c]pyridin-6-yl)(4-methyl-1,4-diazepan-1-yl)methanone] |
| Yes | CCc1cc(O)c(F)cc1-c1ccc2c(-c3nc4c([nH]3)CN(C)[C@H](C(=O)N3CCN(CCO)C[C@H]3C)C4)n[nH]c2c1 [Compound C-5, ((S)-2-(6-(2-ethyl-5-fluoro-4-hydroxyphenyl)-1H-indazol-3-yl)-5-methyl-4,5,6,7-tetrahydro-3H-imidazo[4,5-c]pyridin-6-yl)((R)-4-(2-hydroxyethyl)-2-methyl-piperazin-1-yl)methanone] |
| Yes | CCCN1Cc2[nH]c(-c3n[nH]c4cc(-c5cc(F)c(O)cc5CC)ccc34)nc2C[C@H]1C(=O)N1C[C@@H]2C[C@H]1CN2C [Compound C-2] |
